Test results from patent US10849861B2, “Pharmaceutical compound for treating colorectal cancer” (Everest Pharm. Industrial Co., LTD., priority 2018, dated 2020).

Assays:
[1] = system: human colorectal cancer cell line HCT-116; experiment: Cell viability by MTT assay, HCT-116; type: cell-based
Source text: (§1) The cell line HCT-116 is an adult colorectal cancer cell, and its cells are TGF-β1 and TGF-β2, which are the targeted cells commonly used in preclinical colorectal cancer; the cell line DLD-1 is a […] human colorectal cancer. The cells, which are cancer cells that have invaded the lymph nodes in the late stage, have rapid metastatic growth and are also the targeted cells commonly used in preclinical studies of colorectal cancer; the cell line MCF-7 is an adult […] mastocarcinoma cell with Tx-4 oncogene, which is a targeted cell commonly used in preclinical studies of mastocarcinoma. The cell line A549 is an adult […] lung cancer cell, and its cell characteristic is the ability to synthesize lecithin. Pre-clinical studies of targeted cells are commonly used in lung cancer; cell line EG7 is a lymphoma cell, and its cells with antigen OVA are the targeted cells commonly used in cancer immunotherapy for preclinical studies; cell line L929 is fibroblast, which is the specified cell for preclinical studies of the cytotoxicity standard assay.
(§2) Cell Viability by MTT Assay […]
(§3) 4) The culture solution is extracted, and DMSO is added to dissolve the purple crystals, and the light absorption value is measured at a wavelength of 570 nm.
(§4) 5) The cell survival rate and IC50 of the drug are calculated by comparing the values of the control group with the light absorption values of different groups.

[2] = system: fibroblast cell line L929; experiment: Cell viability by MTT assay, L929; type: cell-based; conditions: Mus musculus, L929 fibroblast cells, 24 hours with drug
Source text: as §1, §2, §3, §4

[3] = system: human lung cancer cell line A549; experiment: Cell viability by MTT assay, A549; type: cell-based; conditions: A549 lung cancer cells, 24 hours with drug
Source text: as §1, §2, §3, §4

[4] = system: human colorectal cancer cell line DLD-1; experiment: Cell viability by MTT assay, DLD-1; type: cell-based; conditions: DLD-1 colorectal cancer cells, 24 hours with drug
Source text: as §1, §2, §3, §4

[5] = system: human colorectal cancer cell (HT-29) tumors; experiment: Animal assay: HT-29 colorectal tumor growth in nu/nu mouse; type: in vivo; conditions: 10 mg/kg tail vein, 2 times per week, HT-29 in nu/nu mouse
Protocol: The mouse is used as a model organism to observe the inhibition growth of TG1 on colorectal cancer tumors.
1) The human colorectal cancer cell (HT-29) is implanted in the back of mouse (nu/nu mouse), and the tumors are grown to about 250 mm^3 for grouping.
2) The mice are divided into 3 groups (untreated group, treatment group TG1 and clinical anticancer drug Irinotecan of treatment group), 8 mice in each group.
3) The treatment group TG1 and Irinotecan are administered at a concentration of 10 mg/kg, and the drug is administered in the tail vein at a frequency of 2 times per week.
4) Observe the tumor volume growth, the tumor volume calculation formula is: length×width×width×0.5.

[6] = system: human breast cancer cell line MCF-7; experiment: Cell viability by MTT assay, MCF-7; type: cell-based; conditions: MCF7, MCF-7 breast cancer cells, 24 hours with drug
Source text: as §1, §2, §3, §4

lymphoma cell line E.G7 = experiment: Cell viability by MTT assay, E.G7; type: cell-based; conditions: E.G7 lymphoma cells, 24 hours with drug
Source text: as §1, §2, §3, §4

[7] = system: human colorectal cancer (Caco2, SW480, HCT116); conditions: Saunier et al. 2017; cited from earlier work

| SMILES | IC50 ([1]; Homo sapiens, HCT-116 colorectal cancer cells, MTT assay, 24 hours with drug) [µM] | ability to poison colorectal cancer cells relative to other cells ([1]; colorectal cancer cells versus other cells, from IC50 values of Table 1) | IC50 [2] [µM] | IC50 [3] [µM] | IC50 [4] [µM] | mean tumor volume ([5]; 10th day) [mm^3] | average tumor volume ([5]; 15th day) [mm^3] | average tumor volume ([5]; 20th day) [mm^3] | IC50 [6] [µM] | IC50 (lymphoma cell line E.G7) [µM] | ability to inhibit cancer cells [7] |
| --- | --- | --- | --- | --- | --- | --- | --- | --- | --- | --- | --- |
| Oc1ccc(/C=C/c2cc(O)cc(O)c2O)cc1 [TG1, 2,3,5, 4′-tetrahydroxy-trans-stilbene] | 0.031 | 1000-6000 times | 255 | 63 | 0.056 | 291 | 300 | 461 | 190 | 180 |  |
| Oc1ccc(C=Cc2cc(O)cc(O)c2)cc1 [resveratrol] |  |  |  |  |  |  |  |  |  |  | no any ability to inhibit cancer cells |
